For 16 molecules, TGI and GI50 results are on record in PubChem BioAssay (NCI).

“And” between values parts separate entries of the source, which are not always exact repeats. Equal values may be shown once.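 Cultured in 96-well plates, cells were exposed to test compound for 48 hours across five concentrations. At the GI50, growth is halved. At the TGI there is no net growth.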

What all share (assay): NCI anticancer screen, dose series, 48 h
In test [1] the test system is MALME-3M melanoma.
For test [2], the system named is 786-0 renal.
The subject of test [3] is TK-10 renal.
The subject of test [4] is CAKI-1 renal.
The test system of test [5] is OVCAR-8 ovarian.
The subject of test [6] is HOP-92 NSCLC.
The subject of test [7] is NCI-H23 lung.
Test [8] relates to NCI-H522 lung.
Test [9] relates to HCC-2998 colon.
Test [10] has as its system MOLT-4 leukemia.

Turning to `C=CC1(C(=O)O)CCC(C(C)(C)C)CC1` (stereo not given), the TGI in test [1], in test [2], in [3], in test [4], in test [5] and in test [6] was greater than 100 µM throughout. Moreover, the TGI in test [7], in test [8], in test [9] and in test [10] was greater than 100 µM each time.

Consider `ClCc1cccc(Cn2cnc3c(NC45CC6CC(CC(C6)C4)C5)ncnc32)c1`, for which the GI50 is 14.6 µM in [1]; 3.43 µM in test [2]; 20.5 µM in [3]; 16.8 µM in [4]; 17.8 µM in test [5]; 17.3 µM in test [6]. Further, the GI50 in test [7] is 19.6 µM; in [8] it was 17.4 µM; in test [9] it was 16.7 µM; in [10], 9.92 µM. Also, the TGI amounted to 32.4 µM in [1]; 25.8 µM in test [2]; 44.7 µM in [3]; 33.2 µM in test [4]; 50.8 µM in test [5]; 34.5 µM in test [6]. Further, the TGI in test [7] was 46.4 µM; in test [8] it was 39.2 µM; in [9] it was 32.2 µM; in test [10], 36 µM.

With `CCOC(=O)Nc1nc2ccc(Cn3cccc3)cc2[nH]1`, the TGI in test [1], in test [2], in test [3], in [4], in test [5] and in [6] was greater than 100 µM each time. Moreover, the TGI in test [7] was greater than 100 µM; in test [8], 2.1 µM; in test [9] it was greater than 26.5 µM; in test [10], greater than 100 µM.

`Nc1ccc(N(S(=O)(=O)c2ccccc2)S(=O)(=O)c2ccccc2)c(Cl)c1`: the TGI in test [1], in test [2], in [3], in test [4], in test [5] and in test [6] was greater than 100 µM each time. Moreover, the TGI was greater than 100 µM in test [7], greater than 100 µM in [8], 64.2 µM in [9] and 60.5 µM in test [10].

For `CSc1ccc(C2=NN(C(=O)c3ccc(F)cc3)C(c3ccc(F)cc3)C2)cc1` (stereo not given), the GI50 in test [1] was 12.1 µM; in test [2], 15.5 µM; in test [3], 10.4 µM; in test [4], 16.6 µM; in test [5] it was 13.5 µM; in [6], 9.72 µM. Besides, the GI50 in [7] is 18.2 µM; in [8], 13.3 µM; in test [9], 12.3 µM; in test [10] it was 12.3 µM. Further, the TGI in test [1] came to 26 µM; in test [2] it was 30.7 µM; in test [3], 22.8 µM; in test [4], 37.5 µM; in [5], 28.9 µM; in test [6], 24.6 µM. Also, the TGI came out at 36.2 µM in [7], 27.7 µM in test [8], 25.6 µM in [9] and 38.2 µM in test [10].

Regarding `Cc1cc(I)cc(CN(C)CCCN2CCSCC2)c1O`, the GI50 is 23.2 µM in test [1]; 21.2 µM in test [2]; 33.3 µM in [3]; 20 µM in test [4]; 34.8 µM in test [5]; 14.6 µM in [6]. Moreover, the GI50 in [7] was 23.5 µM; in test [8], 23.6 µM; in [9], 17.5 µM; in test [10] it was 19.4 µM. The TGI in test [1] is 44.6 µM; in test [2], 53.3 µM; in test [3] it was 89.3 µM; in test [4] it was 40.7 µM; in [5], greater than 100 µM; in [6], 47.4 µM. The TGI in test [7] worked out at 65.1 µM; in test [8], 55.9 µM; in test [9], 32.5 µM; in [10], 41.6 µM.

For `COc1cc(C(=O)/C(C)=C/c2c[nH]c3ccccc23)cc(OC)c1OC`, the GI50 in test [1] was 14.2 µM; in test [2], 0.00639 µM; in test [4], 0.00421 µM; in test [5] it was 0.00358 µM; in [6] it was 0.074 µM; in [7], 0.00516 µM. Further, the results for the GI50 in test [8], in test [9] and in test [10] were 0.00282 µM, 0.0043 µM and 0.00546 µM, respectively. The TGI in [1] is greater than 100 µM; in test [2] it was greater than 100 µM; in test [3], 12.4 µM; in [4], greater than 100 µM; in test [5], 82.4 µM; in test [6] it was 2.33 µM. The TGI in test [7] was greater than 100 µM; in [8] it was 0.00728 µM; in [9], greater than 100 µM; in test [10], 37 µM.

For `O=C(O[C@H]1CN[C@H](C#Cc2cc3ncnc(Nc4ccc5c(ccn5Cc5cc(F)ccc5F)c4)c3s2)C1)N1CCOCC1`, the GI50 in test [1] was 4.06 µM; in [2], 4.55 µM; in [3] it was 0.0724 µM; in [4], 0.187 µM; in test [5], 4.11 µM; in test [6] it was 0.357 µM. Moreover, the GI50 in test [7] was 4.25 µM; in [8], 0.147 µM; in [9], 3.56 µM; in test [10], 6.1 µM. Further, the TGI in test [1] is 9.41 µM; in [2] it was 12.6 µM; in [3] it was 1.93 µM; in test [4], greater than 21.7 µM; in [5] it was 15.4 µM; in test [6], 3.9 µM. Also, the TGI in test [7] was 14.6 µM; in test [8] it was 4.1 µM; in test [9] it was 7.35 µM; in test [10], greater than 25 µM.

As to `COC(=O)c1cc2c(cc1Cl)SC(N(N(C)C)S(=O)(=O)c1ccc(Br)s1)=NS2(=O)=O`, the GI50 in test [1] was 24.9 µM; in test [2], 35.1 µM; in [3], 29.7 µM; in test [4] it was 28.3 µM; in test [6] it was 18.5 µM; in test [7], 28.5 µM. Also, the GI50 is 17.9 µM in test [8], 19.7 µM in [9] and 15.5 µM in [10]. Also, the TGI is 74 µM in [1]; greater than 100 µM in test [2]; 82.1 µM in test [3]; 60.7 µM in [4]; 36.7 µM in test [6]; 70.9 µM in [7]. Moreover, the TGI in test [8] worked out at 42.1 µM; in test [9], 40.6 µM; in test [10], 36.1 µM.

In the case of `CCOC(=O)C(N)C[S][Sn]([CH3])([CH3])[Cl]` (stereo not given), the GI50 in test [1], in [2], in test [3], in test [4], in test [5] and in test [6] was greater than 100 µM in each case. The GI50 was greater than 100 µM in [7], 18.4 µM in test [8], greater than 100 µM in [9] and greater than 65.2 µM in test [10]. For the same molecule, the TGI in [1], in [2], in test [3], in test [4], in test [5] and in test [6] was greater than 100 µM each time. The TGI in test [7] was greater than 100 µM; in test [8] it was 38.4 µM; in [9] it was greater than 100 µM; in test [10], greater than 100 µM.

Regarding `O=c1c2cc(Cl)ccc2oc2ccc(OCCCCCN3CCCCC3)cc12`, the GI50 in test [1] was 6.86 µM; in [2], 5.91 µM; in test [3], 8.06 µM; in [4], 3.24 µM; in [5] it was 6.09 µM; in [6] it was 3.55 µM. Further, the GI50 in [7] is 5.37 µM; in test [8] it was 3.48 µM; in test [9], 8.55 µM; in [10] it was 3.16 µM. The TGI was found to be 14.1 µM in test [1]; 12.5 µM in [2]; 15 µM in [3]; 9.84 µM in test [4]; 14.2 µM in [5]; 10.3 µM in test [6]. Further, the TGI in test [7] was found to be 12 µM; in [8], 10.4 µM; in test [9], 16.9 µM; in [10], 10.7 µM.

For `CN[C@@H](C)C(=O)N[C@H](C(=O)N1CCC[C@H]1C(=O)N[C@H]1c2ccccc2C[C@H]1OCC#CC#CCO[C@@H]1Cc2ccccc2[C@@H]1NC(=O)[C@@H]1CCCN1C(=O)[C@@H](NC(=O)[C@H](C)NC)C1CCCCC1)C1CCCCC1`, the GI50 in [1] is less than 0.01 µM; in [2] it was 9.29 µM; in test [3] it was 19.7 µM; in [4], greater than 68.2 µM; in test [5], 0.452 µM; in test [6], 0.479 µM. Further, the GI50 in test [7] was 0.796 µM; in [8], 0.0623 µM; in test [9], 1.77 µM; in test [10], 1.92 µM. Also, the TGI in [2] was 25.3 µM; in [3], 35.6 µM; in [4], greater than 100 µM; in test [5], 8.31 µM; in test [6] it was 2.48 µM; in [7], 6.98 µM. For the same molecule, the TGI in [8] was 2.37 µM; in [9] it was 4.45 µM; in test [10], 4.57 µM.

As for `O=Cc1ccc(-c2cc(C=O)c(-c3cccs3)[nH]2)s1`, the GI50 in test [1] was greater than 100 µM; in test [2], greater than 100 µM; in [3], 85 µM; in test [4], 53.5 µM; in test [5], greater than 100 µM; in test [6], greater than 100 µM. Further, the GI50 in test [7] is greater than 100 µM; in test [8], 19.6 µM; in test [9], 20.1 µM; in test [10], 81 µM. Moreover, the TGI in test [1] is 75 µM and > 100 µM; in [2], 75 µM and > 100 µM; in [3], 75 µM and > 100 µM; in test [4], 58.3 µM and > 100 µM; in test [5], 75 µM and > 100 µM; in test [6] it was 75 µM and > 100 µM. Moreover, the TGI in test [7] was 75 µM and > 100 µM; in test [8], 19.9 µM and 57.4 µM; in test [9], 56.6 µM and > 100 µM; in test [10], 75 µM and > 100 µM.

On to `COc1cc(/C=C/C(=O)CC(=O)/C=C/c2cc(OC)c(OC)c(OC)c2)cc(OC)c1OC`, for which the GI50 in test [1] is 5.06 µM; in [2], 4.05 µM; in [3], 4.08 µM; in [4] it was 3.27 µM; in test [5], 3.04 µM; in [6] it was 2.47 µM. Moreover, the GI50 was 3.34 µM in test [7], 1.9 µM in test [8], 15.9 µM in test [9] and 2.98 µM in test [10]. The TGI in test [1] was 21.7 µM; in test [2] it was 17.6 µM; in [3], 19.2 µM; in [4], 16.5 µM; in test [5], 13.8 µM; in [6], 8.34 µM. The TGI is 20.2 µM in [7], 3.78 µM in test [8], greater than 100 µM in test [9] and greater than 100 µM in test [10].

`CC1=C2[C@@H](CC1)[C@]1(C)O[C@@](C3CCCCC3)(C[C@H]1OC(=O)CO)[C@H]2OC(=O)/C=C/c1ccccc1`: the GI50 in test [1] was 12 µM; in test [2], 1.48 µM; in test [3] it was 12.3 µM; in test [4], 5.92 µM; in test [5], 0.11 µM; in [6], 3.68 µM. The GI50 is 8.65 µM in test [7], 7.71 µM in test [8], 6.3 µM in test [9] and 5.82 µM in [10]. In addition, the TGI stood at 28 µM in test [1]; 17.6 µM in test [2]; 26.5 µM in test [3]; 22 µM in test [4]; 12.9 µM in [5]; 12.2 µM in [6]. Besides, the TGI came out at 26.1 µM in test [7], 22.5 µM in test [8], 18.4 µM in [9] and 17.4 µM in test [10].

In the case of `Cc1[nH]c2ccccc2c1C1Cc2ccccc2N1C(=O)/C=C\C(=O)O` (stereo not given), the TGI in test [1] is greater than 100 µM; in test [2] it was greater than 100 µM; in test [3], greater than 100 µM; in [4], greater than 100 µM; in [6], 76.6 µM; in test [7], greater than 100 µM. In addition, the figures for the TGI in test [8], in test [9] and in [10] were 77.4 µM, greater than 100 µM and greater than 100 µM, respectively.
